Measurements published in patent US20240270821A1, “GIP/GLP1/GCG TRI-RECEPTOR AGONISTS AND USES THEREOF” (priority 2023, published 2024).
Starred links: 1 amine or outer side, 2 acyl side, 3 side chain; linkers in the order of their positions; H or OH if unused. Non-standard residues stand in square brackets, D forms with d. Groups on a side chain read outwards from the residue. No end group written: not given here. *: point of attachment. C18 diacid = O=C(O)CCCCCCCCCCCCCCCCC(=O)*; γGlu = O=C(O)[C@H](CCC(=O)[*:2])N[*:1]; αMe4Pal = C[C@](N)(Cc1ccncc1)C(=O)O; 4Pal = N[C@@H](Cc1ccncc1)C(=O)O; αMeL = CC(C)C[C@](C)(N)C(=O)O; AEEA = NCCOCCOCC(=O)O; Aib = CC(C)(N)C(=O)O

Experiments:
Type in all cases: cell-based
hGIPR [1] = molecular target: T1, hGIPR (Homo sapiens, UniProt P48546); experiment: Functional cAMP activity in the presence of 1% HSA; details: read-out: cAMP Rel EC50, hGIPR
T1 sequence (P48546 22-466): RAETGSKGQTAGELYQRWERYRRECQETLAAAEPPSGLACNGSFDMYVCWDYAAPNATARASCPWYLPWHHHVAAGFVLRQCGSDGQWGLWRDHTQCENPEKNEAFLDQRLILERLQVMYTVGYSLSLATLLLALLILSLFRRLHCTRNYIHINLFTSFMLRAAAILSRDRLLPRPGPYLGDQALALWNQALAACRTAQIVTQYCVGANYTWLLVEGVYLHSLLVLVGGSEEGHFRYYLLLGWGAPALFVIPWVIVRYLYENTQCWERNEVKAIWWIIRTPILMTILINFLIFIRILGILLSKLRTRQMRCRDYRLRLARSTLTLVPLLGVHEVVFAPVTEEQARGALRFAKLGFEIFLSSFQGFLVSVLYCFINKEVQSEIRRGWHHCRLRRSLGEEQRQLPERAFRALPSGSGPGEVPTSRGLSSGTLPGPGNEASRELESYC

hGLP-1R [2] = molecular target: T2, hGLP-1R (Homo sapiens, UniProt P43220); experiment: Functional cAMP activity in the presence of 1% HSA; details: read-out: cAMP Rel EC50, hGLP-1R
T2 sequence (P43220 24-463): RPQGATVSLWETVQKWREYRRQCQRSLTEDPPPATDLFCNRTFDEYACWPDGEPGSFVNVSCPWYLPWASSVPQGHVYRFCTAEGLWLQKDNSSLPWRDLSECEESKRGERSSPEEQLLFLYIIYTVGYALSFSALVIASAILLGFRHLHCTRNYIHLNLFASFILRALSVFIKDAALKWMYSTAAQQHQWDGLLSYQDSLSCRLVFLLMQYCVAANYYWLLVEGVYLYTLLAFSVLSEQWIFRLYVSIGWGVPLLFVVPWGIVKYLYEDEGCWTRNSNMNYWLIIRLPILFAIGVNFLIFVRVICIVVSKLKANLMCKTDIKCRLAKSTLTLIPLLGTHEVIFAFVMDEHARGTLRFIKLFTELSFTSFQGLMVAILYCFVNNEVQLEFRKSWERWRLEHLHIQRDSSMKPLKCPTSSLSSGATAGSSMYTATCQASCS

human GcgR = human GcgR (Homo sapiens, UniProt P47871); experiment: Functional cAMP activity in the presence of 1% HSA; details: read-out: cAMP Rel EC50, hGcgR
Sequence of human GcgR (P47871 26-477): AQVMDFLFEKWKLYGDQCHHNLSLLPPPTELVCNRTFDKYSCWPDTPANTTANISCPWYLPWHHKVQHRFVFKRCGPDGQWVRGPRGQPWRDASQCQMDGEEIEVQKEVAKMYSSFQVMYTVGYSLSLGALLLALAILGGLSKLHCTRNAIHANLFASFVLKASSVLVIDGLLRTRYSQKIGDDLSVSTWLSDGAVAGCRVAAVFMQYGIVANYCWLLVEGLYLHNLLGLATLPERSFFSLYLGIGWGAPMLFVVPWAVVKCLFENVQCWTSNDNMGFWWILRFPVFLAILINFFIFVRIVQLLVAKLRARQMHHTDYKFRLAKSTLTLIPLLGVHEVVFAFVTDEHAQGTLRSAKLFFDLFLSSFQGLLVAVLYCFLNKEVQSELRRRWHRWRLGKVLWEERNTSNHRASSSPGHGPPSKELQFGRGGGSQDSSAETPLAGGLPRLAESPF

hGIPR [3] = molecular target: T1, hGIPR; experiment: Functional cAMP activation in the presence of 0.1% casein (no HSA); details: in the presence of 0.1% casein (no HSA); geometric mean; read-out: Relative cAMP EC50, hGIPR;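 as to Relative cAMP EC50, hGIPR: intracellular cAMP rise after 30 min at 37 °C read by HTRF against a standard curve, scaled between buffer alone (0%) and top control ligand concentration (100%), four-parameter fit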;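 as to Relative cAMP EC50, hGLP-1R: intracellular cAMP rise after 30 min at 37 °C read by HTRF, normalized between buffer only (0%) and maximal control ligand (100%), four-parameter variable-slope fit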;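 as to Relative cAMP EC50, hGcgR: intracellular cAMP rise after 30 min at 37 °C, read by HTRF against a cAMP standard curve, scaled from buffer only (0%) to maximal control ligand response (100%)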
hGLP-1R [4] = molecular target: T2, hGLP-1R; experiment: as above; details: in the presence of 0.1% casein (no HSA); geometric mean; read-out: Relative cAMP EC50, hGLP-1R
hGcgR = hGcgR (Homo sapiens, UniProt P47871); experiment: as above; details: in the presence of 0.1% casein (no HSA); geometric mean; read-out: Relative cAMP EC50, hGcgR;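 also: intracellular cAMP rise after 30 min at 37 °C, read by HTRF against a cAMP standard curve, scaled from buffer only (0%) to maximal control ligand response (100%)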
Sequence of hGcgR (P47871 26-477): as above

| Substance | EC50 (hGIPR [1]) [nM] | EC50 (hGLP-1R [2]) [nM] | EC50 (human GcgR) [nM] | EC50 (hGIPR [3]) [nM] | EC50 (hGLP-1R [4]) [nM] | EC50 (hGcgR) [nM] |
| --- | --- | --- | --- | --- | --- | --- |
| H-Y[Aib]QGTFTSD[4Pal]SQ[αMeL]LDKK([AEEA-γGlu-C18 diacid])AQ[αMe4Pal]AFIEYLIEGGPSSGAPPPSGS-NH2 [Example 826] | 81.6 | 202 | 441 | 0.581 | 2.75 | 5.59 |
| H-Y[Aib]QGTFTSD[4Pal]SQ[αMeL]LDKK([AEEA-γGlu-C18 diacid])AQ[αMe4Pal]AFIEYLIE[Aib]GPSSGAPPPEGS-NH2 [Example 851] | 24.4 | 428 | 558 | 0.215 | 3.06 | 3.38 |
| H-Y[Aib]QGTFTSD[4Pal]SQ[αMeL]LDKK([AEEA-γGlu-C18 diacid])AQ[αMe4Pal]AFIEYLIE[Aib]GPSSGAPPPSGE-NH2 [Example 881] | 30.1 | 321 | 507 | 0.211 | 2.87 | 4.09 |
| H-Y[Aib]QGTFTSD[4Pal]SQ[αMeL]LDKK([AEEA-γGlu-C18 diacid])AQ[αMe4Pal]AFIEYLIE[Aib]GPSSGAPPPSGSE-NH2 [Example 886] | 26.5 | 271 | 540 | 0.149 | 2.7 | 4.13 |
| H-Y[Aib]QGTFTSD[4Pal]SQ[αMeL]LDKK([AEEA-γGlu-C18 diacid])AQ[αMe4Pal]AFIEYLIE[Aib]GPSSGAPPPSGSEE-NH2 [Example 897] | 25.9 | 557 | 658 | 0.157 | 3.29 | 3.62 |
| H-Y[Aib]QGTFTSD[4Pal]SQ[αMeL]LDKK([AEEA-γGlu-C18 diacid])AQ[αMe4Pal]AFIEYLIE[Aib]GPSSGAPPPSGSEEE-NH2 [Example 898] | 25.5 | 584 | 770 | 0.287 | 4.62 | 3.39 |
| H-Y[Aib]QGTFTSD[4Pal]SQ[αMeL]LDKK([AEEA-γGlu-C18 diacid])AQ[αMe4Pal]AFIEYLIE[Aib]GPSSGAPPPSGSGE [Example 889] | 21.6 | 371 | 688 | 0.106 | 5.06 | 4.09 |
| H-Y[Aib]QGTFTSD[4Pal]SQ[αMeL]LDKK([AEEA-γGlu-C18 diacid])AQ[αMe4Pal]AFIEYLIE[Aib]GPSSGAPPPSGSGE-NH2 [Example 888] | 30.8 | 238 | 567 | 0.168 | 5.02 | 30.1 |
| H-Y[Aib]QGTFTSD[4Pal]SQ[αMeL]LDKK([AEEA-γGlu-C18 diacid])AQ[αMe4Pal]AFIEYLIE[Aib]GPSSGAPPPSGT-NH2 [Example 834] | 15.7 | 208 | 533 | 0.094 | 2.64 | 3.36 |
| H-Y[Aib]QGTFTSD[4Pal]SQ[αMeL]LDKK([AEEA-γGlu-C18 diacid])AQ[αMe4Pal]AFIEYLIE[Aib]GPSSGAPPPSG[4Pal]-NH2 [Example 835] | 16.8 | 274 | 558 | 0.382 | 2.84 | 3.83 |
| H-Y[Aib]QGTFTSD[4Pal]SQ[αMeL]LDKK([AEEA-γGlu-C18 diacid])AQ[αMe4Pal]AFIEYLIE[Aib]GPSSGAPPPSSS-NH2 [Example 848] | 20.2 | 313 | 615 | 0.148 | 2.29 | 3.22 |
| H-Y[Aib]QGTFTSD[4Pal]SQ[αMeL]LDKK([AEEA-γGlu-C18 diacid])AQ[αMe4Pal]AFIEYLLAGGPSSGAPPPSGSEE-NH2 [Example 1037] | 13.7 | 625 | 291 | 0.221 | 5.95 | 3.31 |
| H-Y[Aib]QGTFTSD[4Pal]SQ[αMeL]LDKK([AEEA-γGlu-C18 diacid])AQ[αMe4Pal]AFIE[αMe4Pal]LIEGGPSSGAPPPSGS-NH2 [Example 948] | 22.9 | 304 | 537 | 0.17 | 2.67 | 2.89 |
